This is an account of results in patent publication US10907219B2, “Compositions and methods for controlling cellular function” (STC.UNM, priority 2014, dated 2021).

Format in all cases: cell-based
For series [1], the system named is HEK 293T eGFP reporter cells (VP-PYL and GAL4DBD-ABI). The series can be described thus: H2O2-induced eGFP expression (transcriptional activation). An excerpt:
To determine if the ABA generated from the H2O2-induced cleavage of ABA-HP is biologically active, we tested whether it could induce downstream biological processes. We first investigated H2O2-induced transcriptional activation using an HEK 293T stable cell line, in which enhanced GFP (eGFP) expression occurs only in the presence of functional ABA. The cell line was created with both the ABA-responsive split transcriptional activator DNA fragment (VP-PYL and GAL4DBD-ABI linked by IRES; Liang et al., 2011, Sci. Signal. 4, rs2) and an inducible eGFP DNA fragment (with 5×UAS) inserted into the genome (FIG. 2a).
We tested the response of our system to H2O2 at physiologically relevant concentrations under cell culture conditions. The eGFP reporter cells were treated with no drug, or 10 μM of ABA, ABA-HP, or ABA-HP exposed to H2O2 (1, 5 or 10 eq) for five to 24 hours. The expression of eGFP was monitored at specific time points using a fluorescence microscope. […] Alternatively, for cellular experiments, cell culture media can be exchanged regularly with media containing fresh ABA-HP and thus restrict the build-up of esterase-cleaved ABA.
EGFP expression experiments: HEK 293T (GFP) cells were seeded 24 hours prior to treatment in 24-well plates at 100 K/well. 10 μM ABA-HP was added to the cells 10 minutes prior to the addition of 10 μM ABA and 10, 50, or 100 μM of H2O2. Images were taken for living cells at 5 hours, 7 hours, 10 hours and 24 hours.
An Axio Observer D1 fluorescent microscope (Carl Zeiss AG, Oberkochen, Germany) outfitted with HBO 100 microscopy illumination system (Carl Zeiss AG, Oberkochen, Germany; GFP: excitation 470/40 and emission 525/50) was used to analyze GFP expression and NES localization. A 20× objective was used to analyze GFP expression. A 63× objective was used for NES localization.

Series [2] relates to myr-ABI and PYL-eGFP-Tiam1 in CHO cells. The experiment in a line: H2O2-induced ruffle formation (Tiam1 membrane localization). An excerpt:
To further investigate whether a complex biological process can be triggered by H2O2-induced protein dimerization, we examined the membrane ruffle formation resulting from localized Rho GTPase activation. Tiam1 is a guanine exchange factor for Rac, a member of Rho GTPase. The membrane translocation of Tiam1 activated Rac signaling pathway and induced ruffle formation, which is involved in cell migration and morphogenesis. We constructed an ABA-inducible Tiam1 membrane localization system, which consists of DNA plasmids encoding the membrane-localized ABI (myr-ABI; Liang et al., 2011, Sci. Signal. 4, rs2) and the cytoplasmic eGFP/PYL-fused Tiam1 (PYL-eGFP-Tiam1) (FIG. 2a). CHO cells were transfected with these plasmids for 24 hours and then incubated for one hour without additive, or with 10 μM of ABA, ABA-HP or ABA-HP plus 10 eq of H2O2. The ruffle formation in cells was analyzed by the confocal microscopy.
Ruffle generation experiment: CHO were seeded in 24-well plates at 50 K/well with coverslip for 24 hours. 0.1 μg PYL-eGFP-Tiam1 and 0.1 μg myr-ABI (FIG. 2a, iii) of DNA plasmid were used for each well, with 30 μL of Opti-MEM (Life Technologies, Carlsbad, Calif.) and 1.8 μL PEI. After incubation at room temperature for 15 min, the mixture was added to the cells and cultured for 24 hours. […]

Series [3] deals with myr-ABI and EGFP-PYL-Tiam1 in CHO cells. The experiment in a line: Light-induced ruffling via Tiam1 membrane localization / Rac1 signaling (fixed cells). Conditions: for percentage of cells displaying ruffling: compared with ABA-DMNB without irradiation or no drug. An excerpt: Next, we examined the induction of ruffle formation through the activation of the Rac1 signaling pathway in order to determine if the light-activated ABA system can be used to regulate a complex biological process. The GTP exchange factor, Tiam1, when presents at the cell membrane, activates Rac1 to initiate a signaling pathway that leads to cytoskeletal remodeling that forms filopodia and/or lamellipodia. To activate Rac1 signaling and induce membrane ruffling, light and ABA-DMNB were used to control membrane localization of Tiam1 (FIG. 23A). A construct encoding a membrane localized ABI (myr-ABI) and one expressing a constitutively active Tiam1 fused to EGFP and PYL were employed for this purpose (FIG. 23A). Following the transfection of CHO cells with both plasmids for 24 hours, 10 μM of ABA-DMNB was added and the treated cell culture was irradiated with 365 nm light from a fluorescent microscope. Cells were then fixed on slides and analyzed under a fluorescence microscope. […] Some background ruffling when overexpressing constitutively active Tiam1 was observed even when no drug was added.
Slide preparation: Cells were grown on glass coverslips in 24-well plates. The coverslips were washed with phosphate-buffered saline (PBS) and fixed with 4% paraformaldehyde (PFA, 300 μL, prepared in PBS) at room temperature for 20 min. The cells were then washed twice with PBS and incubated with 1×DAPI in the dark at the room temperature for 5 min. After a final wash with PBS, the coverslips were mounted on a glass slide with VECTASHIELD (Vector Laboratories, Inc., Burlingame, Calif.) mounting media and allowed to stand for two hours in the dark before imaging.
Statistical analysis of cell population: Cell were categorized as displaying nuclear export of EGFP when the fluorescent intensity of the nucleus was less than 60% of the intensity of the cytoplasm. […] Cells were counted from three separate experiments, with N>50 for each experiment.

Series [4] concerns CHO cells transfected with ABA-inducible luciferase constructs. The experiment in a line: ABA-inducible luciferase assay.

“Also recorded” adds a separate entry of the source.

As to `CC1=CC(=O)CC(C)(C)C1(O)/C=C/C(C)=C\C(=O)O` (centres unmarked) [ABA, abscisic acid, reference compound], the eGFP expression entry in series [1] (10 μM, compound alone, after five hours) is “eGFP expression could be observed after five hours”. Further, in series [2] (10 μM, compound alone, CHO cells), the ruffle formation entry is “showed obvious ruffle formation”. Moreover, in series [3] (not irradiated), the “percentage of cells displaying ruffling” value is reported as “higher percentage of ruffled cell; also recorded: greater percentage of cells displaying ruffling”. The “dose dependence of gene expression” value in series [4] (increasing dosages, not irradiated) is listed as “dose-dependent induction of gene expression”.
`CCN(CC)c1ccc2c(COC(=O)/C=C(C)\C=C\[C@@]3(O)C(C)=CC(=O)CC3(C)C)cc(=O)oc2c1` [ABA-DEACM]: in series [3] (10 μM, 405 nm light irradiation, fixed CHO cells), the “Rac1 signaling activation/ruffle formation” value is on record as “Rac1 signaling activation/ruffle formation in cells”.
For `COc1cc(COC(=O)/C=C(C)\C=C\[C@@]2(O)C(C)=CC(=O)CC2(C)C)c([N+](=O)[O-])cc1OC` [ABA-DMNB], in series [3] (10 μM, 365 nm irradiation), the “percentage of cells displaying ruffling” value is given as “higher percentage of ruffled cell; also recorded: greater percentage of cells displaying ruffling”. For the same compound, the “dose dependence of luciferase expression” value in series [4] (increasing concentrations, with irradiation) is reported as “corresponding increases in the level of luciferase expression”. In addition, the luciferase expression entry in series [4] (irradiated 365 nm UV 120 seconds in cell culture, twelve hours) is “induced luciferase expression”.
Regarding `CC1=CC(=O)CC(C)(C)[C@@]1(O)/C=C/C(C)=C\C(=O)OCc1ccc(B2OC(C)(C)C(C)(C)O2)cc1` [ABA-HP], the eGFP expression result was “eGFP expression could be observed after five hours” in series [1] (10 μM plus H2O2 (1, 5 or 10 eq), after five hours); “eGFP expression was indeed observed” in series [1] (10 μM, compound alone, extended incubation 24 hours); “not observed within a 10-hour period” in series [1] (10 μM, compound alone, no H2O2, within 10 hours). In addition, in series [1] (10 μM plus different amounts of H2O2), the “dependence of eGFP expression on H2O2 level” value is listed as “dose-dependent eGFP expression”. Also, in series [1] (10 μM, no H2O2, inferred from absent eGFP expression), the stability within cells entry was “at least 10 hours”. The ruffle formation entry in series [2] (10 μM plus 10 eq of H2O2, CHO cells) is listed as “showed obvious ruffle formation”.
